According to article PMC3806051 (Journal of the American Chemical Society, 2013):
Values joined by “and” are separate entries in the source; they are usually repeats but may differ in a detail not shown here. Identical values can stand only once. “Also recorded” adds a separate entry of the source. Like-named read-outs stand apart in the source and are kept apart here.

How the values were obtained:
[1] = Stability / isomerization in organic solvents; conditions: CH2Cl2, THF, EtOAc, DMSO
[2] = Isomerization in binding assay medium; format: physicochemical; conditions: for proportion of isomer in the mixture: 100 h time-point, regardless which isomer was used at the beginning
[3] = test system: SJSA-1 osteosarcoma cell line; test: cells; conditions: Homo sapiens, read-out: IC50 cell growth inhibition
[4] = Isomerization in vivo in plasma and tumor tissue; conditions: plasma and tumor tissue of SCID mice
[5] = Plasma concentration in tumor bearing SCID mice; conditions: for Plasma Concentration of isomer: single oral 100 mg/kg, 24 h
[6] = test system: SJSA-1 osteosarcoma tumor xenograft; format: in vivo; conditions: for tumor growth inhibition as compared to vehicle control: end of treatment (day 26); for weight loss or other signs of toxicity: 5a 200 mg/kg, 5b 100 and 200 mg/kg daily oral 14 days
[7] = test system: p53 activation in SJSA-1 tumor tissue; test: Pharmacodynamic study, Western blotting of tumor tissue; format: in vivo, mouse; conditions: single oral dose 200 mg/kg; for p53 activation in tumor tissue (accumulation of p53, MDM2 and p21): Western blot
[8] = Tumor tissue concentration in tumor bearing SCID mice; conditions: for Tumor Concentration of isomer: single oral 100 mg/kg, 24 h
[9] = Interconversion of isomers in MeCN-H2O; format: physicochemical
[10] = Isomerization in cell culture medium; format: physicochemical; conditions: 2 days, starting from 5a or 5b
[11] = test system: animal models of human cancer; conditions: ref 6b; cited from earlier work
MDM2 = conditions: ref 6b; cited from earlier work

Compound | IC50 ([3]; SJSA-1, 24 h) [µM] | IC50 ([3]; SJSA-1, 48 h) [µM] | IC50 ([3]; SJSA-1, 72 h) [µM] | isomerization in vivo [4] | Plasma Concentration of isomer ([5]; dosed with 5a) | weight loss or other signs of toxicity [6] | Tumor Concentration of isomer ([8]; dosed with 5a) | Tumor Concentration of isomer ([8]; dosed with 5b) | proportion of isomer in the mixture ([2]; binding assay medium) | also measured
CN(C)C(=O)[C@@H]1N[C@H](CC(C)(C)C)[C@]2(C(=O)Nc3cc(Cl)ccc32)[C@H]1c1cccc(Cl)c1 [1a, (2′R,3S,4′R,5′R)-6-chloro-4′-(3-chlorophenyl)-N,N-dimethyl-2′-neopentyl-2-oxospiro[indoline-3,3′-pyrrolidine]-5′-carboxamide] | – | – | – | – | – | – | – | – | – | stability in aprotic solvents [1]: relatively stable; remaining of starting isomer ([2]; binding assay medium, after 12 days): 17.6%; converted into 1b ([2]; binding assay medium, after 12 days, started with 1a): 53%
CC(C)(C)C[C@H]1N[C@@H](C(=O)NCC[C@H](O)CO)[C@H](c2cccc(Cl)c2F)[C@@]12C(=O)Nc1cc(Cl)ccc12 [5a, (2′R,3S,4′S,5′R)-6-chloro-4′-(3-chloro-2-fluorophenyl)-N-((S)-3,4-dihydroxybutyl)-2′-neopentyl-2-oxospiro[indoline-3,3′-pyrrolidine]-5′-carboxamide] | 30.3 ± 6.23 | 0.95 ± 0.16 | 0.18 ± 0.02 | isomerizes very fast | BLQ | no significant weight loss | BLQ | BLQ | ~40% | IC50 ([3]; SJSA-1, 96 h): 0.15 ± 0.03 µM; Plasma Concentration of isomer ([5]; dosed with 5b): BLQ ^b; tumor growth inhibition as compared to vehicle control ([6]; 200 mg/kg daily oral gavage 14 days): 41%; p53 activation in tumor tissue (accumulation of p53, MDM2 and p21) [7]: effectively activated p53; isomerization in CH3CN-H2O ([9]; over a period of up to four days): gradually converted into a mixture of four isomers
CC(C)(C)C[C@@H]1N[C@@H](C(=O)NCC[C@H](O)CO)[C@H](c2cccc(Cl)c2F)[C@]12C(=O)Nc1cc(Cl)ccc12 [5b, (2′S,3R,4′S,5′R)-6-chloro-4′-(3-chloro-2-fluorophenyl)-N-((S)-3,4-dihydroxybutyl)-2′-neopentyl-2-oxospiro[indoline-3,3′-pyrrolidine]-5′-carboxamide] | 18.1 ± 2.4 | 0.63 ± 0.04 | 0.18 ± 0.01 | isomerizes slowly | BLQ | no significant weight loss | BLQ | BLQ | approximately 50% | proportion of 5b of all 4 isomers [10]: approximately 50%; plasma concentration of 5b in mice dosed with 5b versus mice dosed with 5a ([5]; mouse, in vivo): 7 fold and 12 fold; tumor growth inhibition as compared to vehicle control ([6]; 100 mg/kg daily oral gavage 14 days): 67%; apoptosis induction in tumor tissue (PARP cleavage, caspase-3 activation) ([7]; 24 h): stronger apoptosis induction than 5a; p53 activation in tumor tissue (accumulation of p53, MDM2 and p21) ([7]; 200 mg/kg): effectively activated p53; also recorded: clearly more potent than 5a; tumor tissue concentration of 5b in mice dosed with 5b versus mice dosed with 5a ([8]; mouse, in vivo): 11 fold and 16 fold; converted into a mixture of three other isomers ([9]; CH3CN-H2O, after 12 days): 4%; isomerization kinetics in binding assay medium ([2]; room temperature): slow isomerization kinetic and was the most stable
CC(C)(C)C[C@H]1N[C@@H](C(=O)NCC[C@H](O)CO)[C@H](c2cccc(Cl)c2)[C@@]12C(=O)Nc1cc(Cl)c(F)cc12.Cl [MI-219] | – | – | – | – | – | – | – | – | – | tumor growth in animal models of human cancer [11]: strongly inhibits tumor growth; binding affinity to MDM2 (MDM2): low nanomolar affinity
